This note sets out measurements from ChEMBL document CHEMBL4130341 (Medchemcomm, 2016).

Activity calls are given as the source filed them. No cut-off for these calls is given here.

Data set [1] deals with T1, Nuclear factor erythroid 2-related factor 2 (Mus musculus) (UniProt Q60795).
T1 sequence (whole entry): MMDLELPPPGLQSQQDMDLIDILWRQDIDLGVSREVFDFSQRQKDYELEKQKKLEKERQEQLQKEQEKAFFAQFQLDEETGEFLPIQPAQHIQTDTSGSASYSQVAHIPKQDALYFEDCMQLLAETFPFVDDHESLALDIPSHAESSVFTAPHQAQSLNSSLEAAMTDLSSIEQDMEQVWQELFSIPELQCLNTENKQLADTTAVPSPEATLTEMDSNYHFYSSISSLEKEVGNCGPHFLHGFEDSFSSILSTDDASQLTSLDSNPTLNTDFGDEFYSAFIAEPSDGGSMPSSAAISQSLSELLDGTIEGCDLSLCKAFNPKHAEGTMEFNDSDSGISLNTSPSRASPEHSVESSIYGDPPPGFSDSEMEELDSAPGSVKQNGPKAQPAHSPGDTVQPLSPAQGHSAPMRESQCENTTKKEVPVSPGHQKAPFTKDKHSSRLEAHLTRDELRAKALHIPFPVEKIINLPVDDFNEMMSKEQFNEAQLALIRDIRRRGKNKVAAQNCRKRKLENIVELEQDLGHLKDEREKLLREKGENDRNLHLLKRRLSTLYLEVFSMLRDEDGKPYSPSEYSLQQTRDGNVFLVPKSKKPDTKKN
Description: Ratio of activation of wild type Nrf2 in mouse Hepa1c1c7 cells cytosolic fraction to activation of Nrf2 in mutant mouse BpRc1 cells cytosolic fraction. The data set is classed as cell-based.

Data set [2] has as its system MCF7. The data set is described as follows: Cytotoxicity against human MCF7 cells assessed as cell survival at 100 uM after 24 hrs by SRB assay relative to control. The format is functional.
The target of data set [3] is T1, Nuclear factor erythroid 2-related factor 2 (Mus musculus). Description: Activation of Nrf2 in mutant mouse BpRc1 cells cytosolic fraction assessed as induction of quinone reductase activity at 10 uM using 2,6-DCIP as substrate in presence of NADH incubated for 48 hrs measured for 1 min relative to control. The data set is classed as cell-based.
The test system of data set [4] is HK-2. Description: Genotoxicity in human HK2 cells assessed as induction of DNA strand breakage at 20 uM after 6 hrs by DAPI staining based alkaline comet assay. The data set is classed as toxicity, cell-based. Conditions: hk-2, 6 h.
The subject of data set [5] is Salmonella typhimurium. The data set is described as follows: Mutagenicity in Salmonella typhimurium TA98 in presence of mouse liver S9 fraction by Ames test. The conditions noted are these: salmonella enterica subsp. enterica serovar typhimurium. The format is toxicity, organism-based. (In general: The Ames test uses bacterial strains that need an amino acid and regain growth without it when mutated back.)

The target in data set [6] is T1, Nuclear factor erythroid 2-related factor 2 (Mus musculus). The data set is described as follows: Activation of Nrf2 in wild type mouse Hepa1c1c7 cells cytosolic fraction assessed as induction of quinone reductase activity at 10 uM using 2,6-DCIP as substrate in presence of NADH incubated for 48 hrs measured for 1 min relative to control.

In the case of `O=C(/C=C/c1cccc2ccccc12)c1ccccc1`, the Ratio in data set [1] amounted to 1. Besides, the result in data set [2] was Active. Moreover, the fold change (FC) in data set [3] is 0.92; in data set [6], 0.88. The Activity entry in data set [4] and in data set [5] was “Non-Toxic” in each case.

Consider `O=C(/C=C/c1ccnc2ccccc12)c1ccc2ccccc2c1`, for which the Ratio in data set [1] was found to be 1. The result in data set [2] was Active. Moreover, the figures for the fold change (FC) in data set [3] and in data set [6] were 1.25 and 1.28, respectively. For the same compound, in data set [5], the Activity entry is given as “Non-Toxic”.

With `O=C(/C=C/c1ccccn1)c1ccccc1O`, in data set [4], the Activity entry is “Non-Toxic”.

Regarding `O=C(/C=C/c1cncc(Br)c1)c1ccc2ccccc2c1O`, in data set [1], the Ratio came to 2. Moreover, the result in data set [2] was Active. In addition, the fold change (FC) in data set [3] turned out to be 1.13; in data set [6], 2.3. Moreover, the Activity result in data set [4] and in data set [5] was “Non-Toxic” throughout.

`O=C(CC(O)c1ccccc1)c1ccc2ccccc2c1` (stereo not given): the Ratio in data set [1] turned out to be 2.9. Also, the result in data set [2] was Active. The fold change (FC) was found to be 1.74 in data set [3] and 5.04 in data set [6]. In addition, the Activity result in data set [4] and in data set [5] was “Non-Toxic” throughout.

Regarding `O=C(/C=C/c1ccc2ccccc2c1)c1c(O)ccc2ccccc12`, the Ratio in data set [1] is 2.2. The outcome in data set [2] was Active. Moreover, the fold change (FC) in data set [3] was 0.79; in data set [6] it was 1.76. Further, the Activity result in data set [4] and in data set [5] was “Non-Toxic” each time.

Turning to `O=C(/C=C/c1ccnc2ccccc12)c1ccc2ccccc2c1O`, in data set [2], the outcome was Active. The figures for the fold change (FC) in data set [3] and in data set [6] were 0.85 and 1.48, respectively.

On to `O=C(/C=C/c1ccnc2ccccc12)c1cccc2ccccc12`, for which the Ratio in data set [1] came to 0.8. Also, the result in data set [2] was Active. In addition, the fold change (FC) in data set [3] worked out at 1.83; in data set [6] it was 1.43. Besides, the Activity entry in data set [5] is “Non-Toxic”.

`O=C(/C=C/c1ccc2ccccc2c1)c1ccc2ccccc2c1O`: the Ratio in data set [1] is 1.5. Besides, the result in data set [2] was Active. Besides, the fold change (FC) in data set [3] amounted to 0.97; in data set [6] it was 1.44. For the same compound, in data set [5], the Activity result is on record as “Non-Toxic”.

Consider `O=C(/C=C/c1ccccc1)c1ccc2ccccc2c1O`, for which the fold change (FC) in data set [3] amounted to 0.57; in data set [6], 3.04.

Turning to `O=C(/C=C/c1ccc(Br)cc1)c1ccccc1O`, the Activity entry in data set [4] was “Non-Toxic”.

For `O=C(CC(O)c1ccccc1)c1c(O)ccc2ccccc12` (stereo not given), the Ratio in data set [1] came to 2.9. The outcome in data set [2] was Active. The fold change (FC) in data set [3] amounted to 1.14; in data set [6], 3.31.

For `O=C(CC(CC(=O)c1ccccc1)c1cccc2ccccc12)c1ccccc1`, the Ratio in data set [1] stood at 0.4. The result in data set [2] was Active. In addition, the fold change (FC) in data set [3] turned out to be 2.38; in data set [6], 0.83. Further, the Activity result in data set [5] is “Non-Toxic”.

As to `O=C(/C=C/c1ccnc2ccccc12)c1ccccc1O`, the Ratio in data set [1] came out at 4. Moreover, the fold change (FC) in data set [3] came out at 1.34; in data set [6], 5.42. For the same compound, the Activity entry in data set [5] was “Non-Toxic”.

For `O=C(/C=C/c1ccc2ccccc2c1)c1ccccc1`, in data set [1], the Ratio came to 0.7. Further, the result in data set [2] was Active. Also, the fold change (FC) in data set [3] worked out at 1.41; in data set [6] it was 0.95. Besides, the Activity entry in data set [4] and in data set [5] was “Non-Toxic” throughout.
